Entries after “also recorded” stand apart in the source; their conditions may differ.
Tests used:
[1] = system: human renal glomerular microvascular endothelial cells; test: ECIS transendothelial electrical resistance (TER), glomerular endothelial cells; assay type: cell-based
Description: Assays were performed to determine the effect of DA-DKP on transendothelial electrical resistance (TER) of human renal glomerular microvascular endothelial cells (ACBRI 128, Cell Systems Corporation (exclusive distributor for Applied Cell Biology Research Institute), Kirkland, Wash.). Electrical resistance was measured using the electric cell-substrate impedance sensing (ECIS) system (ECISZθ, obtained from Applied Biophysics) with 8-well multiple electrode plates (8W10E). Each well of the plates was coated with 5 μg/cm^2 fibronectin in HBSS by adding the fibronectin in a volume of 100 μl per well and incubating the plates for 30 minutes in a 37° C. incubator with 5% CO2. The fibronectin solution was removed, and 400 μl of EGM-2 culture medium (Lonza) was added to each well. The plates were connected to the ECISZθ system and were electrically stabilized. The EGM-2 medium was aspirated and replaced with 200 μl of EGM-2 culture medium containing 100,000 cells per well. The plates were reconnected to the ECISZθ system and incubated for 24 hours in a 37° C. incubator with 5% CO2. The EGM-2 medium was aspirated and replaced with 400 μl of fresh EGM-2 culture medium per well. The plates were reconnected to the ECISZθ system and incubated for 6 hours in a 37° C. incubator with 5% CO2. Solutions of the test compounds in HBSS were prepared and placed in the incubator to equilibrate. The test compounds were then added to appropriate wells at the following final concentrations: DA-DKP (100 μM) (Sigma) and TNFα (1 ng/ml) (Sigma). ECIS (resistance) was monitored for 90 hours.

[2] = system: human retinal endothelial cells; test: ECIS transendothelial electrical resistance (TER), retinal endothelial cells, 96-well plates; assay type: cell-based
Description: Assays were performed to determine the effect of DA-DKP on transendothelial electrical resistance (TER) of human renal glomerular microvascular endothelial cells (ACBRI 128, Cell Systems Corporation (exclusive distributor for Applied Cell Biology Research Institute), Kirkland, Wash.). Electrical resistance was measured using the electric cell-substrate impedance sensing (ECIS) system (ECISZθ, obtained from Applied Biophysics) with 8-well multiple electrode plates (8W10E). Each well of the plates was coated with 5 μg/cm^2 fibronectin in HBSS by adding the fibronectin in a volume of 100 μl per well and incubating the plates for 30 minutes in a 37° C. incubator with 5% CO2. The fibronectin solution was removed, and 400 μl of EGM-2 culture medium (Lonza) was added to each well. The plates were connected to the ECISZθ system and were electrically stabilized. […] ECIS (resistance) was monitored for 90 hours.
Assays were performed to determine the effect of DA-DKP on transendothelial electrical resistance (TER) of human retinal endothelial cells (ACBRI 181, Cell Systems Corporation (exclusive distributor for Applied Cell Biology Research Institute), Kirkland, Wash.). Electrical resistance was measured using the electric cell-substrate impedance sensing (ECIS) system (ECISZθ, obtained from Applied Biophysics) as described in Example 1, but using 96-well multiple electrode plates […].

[3] = system: human retinal endothelial cells; test: Actin stress fiber formation (rhodamine-phalloidin F-actin staining); assay type: cell-based; settings: 15 minutes and 3 hours
Description: Passage 12 human retinal endothelial cells (ACBRI 181, Cell Systems Corporation (exclusive distributor for Applied Cell Biology Research Institute), Kirkland, Wash.) were seeded into 16-chamber glass slides coated with 5 μg/cm^2 fibronectin at 5000 cells per well in a total volume of 200 μl of EGM-2 medium (Lonza). The slides were cultured in a 37° C. incubator with 5% CO2 for 48 hours with daily medium changes. Then, the test compounds (DA-DKP, S1P and TNFα), diluted in Hanks Balanced Salt Solution (HBSS; Lonza), were added to give the following final concentrations: DA-DKP (100 μM) (Sigma), TNFα (1 ng/ml) (Sigma), and S1P (1 μM) (Sigma). The slides were incubated with the test compounds for 15 minutes or 3 hours in a 37° C. incubator with 5% CO2. After this incubation, the medium was aspirated, and the cells were fixed using 3.6% formaldehyde in phosphate buffered saline (PBS) for ten minutes at room temperature. All wells were then washed two times with 100 μl PBS. The cells were permeabilized using a 0.1% Triton X-100 in PBS for 5 minutes. All wells were then washed two times with 100 μl PBS, and 50 μl of a 1:40 dilution of rhodamine-phalloidin (Invitrogen) in PBS was added to the cells to stain for F-actin and left on the cells for 20 minutes at room temperature. All wells were then washed two times with 100 μl PBS. Then 100 μl PBS was added to each well and the cells were observed and photographed using an inverted microscope using a rhodamine (ex530/em590) filter.

RhoA = test: Rho activation assay (GLISA) in retinal endothelial cells; assay type: cell-based, human
Description: This experiment was performed using a commercially-available Rho activation assay (GLISA) purchased from Cytoskeleton, Denver, Colo., following the manufacturer's protocol. Briefly, passage 8 or 12 human retinal endothelial cells (ACBRI 181, Applied Cell Biology Research Institute, Kirkland, Wash.) were cultured on fibronectin-coated (1 μg/cm^2) 6-well tissue culture plates using EGM-2 culture medium (Lonza) for 24 hours in a 37° C. incubator with 5% CO2 (30,000 cells/well in total volume of 3 ml). Then, the medium was aspirated and replaced with Ultraculture medium supplemented with 0.1% fetal bovine serum, L-glutamine, sodium pyruvate, penicillin/streptomycin and ITSS (insulin, transferrin sodium selenium) (all from Lonza) to serum starve the cells and reduce the background level of RhoA. The cells were cultured for 24 hours in a 37° C. incubator with 5% CO2. Test compounds diluted in HBSS were placed in the incubator to equilibrate before addition to the cells. Then, 150 μl of each test compound was added to the appropriate culture wells, and the plates were incubated in the incubator for an additional 15 minutes. Then, thrombin was added to appropriate wells. After 1 minute, the cells were washed one time with 1.5 ml phosphate buffered saline and were then lysed with 100 μl GLISA lysis buffer supplemented with protease inhibitors. The extracts were scraped, transferred to microcentrifuge tubes and transferred to ice to preserve the active form of RhoA. All extracts were then cleared of debris by spinning at 10,000 rpms for 2 minutes at 4° C. The supernatants were transferred to new tubes and placed back on ice. Aliquots of each extract were removed for the GLISA assay and for protein determinations. All protein concentrations were within 10%, and the extracts were used at the achieved concentrations (equates to 15 total protein per well). The GLISA assay was performed using the reagents supplied in the kit.

[4] = system: passage 6 human retinal endothelial cells; test: ECIS transendothelial electrical resistance (TER), passage 6 retinal endothelial cells; assay type: cell-based; settings: for ECIS as compared to untreated cells: monitored 50 hours
Description: Assays were performed to determine the effect of MR-DKP (a diketopiperazine wherein R^1 in formula I is the side chain of methionine and R^2 is side chain of arginine) on transendothelial electrical resistance (TER) of passage 6 human retinal endothelial cells (Applied Cell Systems Corporation (exclusive distributor for Applied Cell Biology Research Institute), Kirkland, Wash.). Electrical resistance was measured using the electric cell-substrate impedance sensing (ECIS) system (ECISZθ, obtained from Applied Biophysics) with 8-well multiple electrode plates (8W10E). Each well of the plates was stabilized by adding 250 μl of 10 mM cysteine (Sigma) in sterile water to each well and incubating for 30 minutes at room temperature. The wells were then washed two times with 150 μl of sterile water to remove the cysteine. All wells were then coated with 10 μg/cm^2 collagen by diluting the stock solution (0.5 mg/ml Type IV collagenin 0.25% acetic acid (Sigma) in sterile water and adding 150 μl of the resulting solution to each well. The collagen solution was incubated on the plates at 37° C. for 120 minutes and then removed. The wells were washed two times with 400 μl sterile water to remove the collagen. Next, 400 μl of EGM-2 culture medium (Lonza) was added to each well. The plates were connected to the ECISZθ system and were electrically stabilized. The EGM-2 medium was aspirated and replaced with 400 μl of EGM-2 culture medium containing 100,000 cells per well. The plates were reconnected to the ECISZθ system and incubated for 24 hours in a 37° C. incubator with 5% CO2. The EGM-2 medium was aspirated and replaced with 400 μl of EGM-2 culture medium. The plates were reconnected to the ECISZθ system and incubated for 2 hours in a 37° C. incubator with 5% CO2. Solutions of the test compound in HBSS were prepared and placed in the incubator to equilibrate. The test compound was then added to appropriate wells at the following final concentrations: MR-DKP (50 μM and 100 ECIS (resistance) was monitored for 50 hours.
Example 5 was repeated, except that the diketopiperazine used was YE-DKP (a diketopiperazine wherein R^1 in formula I is the side chain of glutamic acid and R^2 is the side chain of tyrosine). […] The increase was about 20% at its maximum.

[5] = passage 8 cells, 100 μM + 0.1 U/ml thrombin
[6] = passage 8 cells, 100 μM, no thrombin
[7] = passage 12 cells, 100 μM + 0.1 U/ml thrombin
[8] = passage 12 cells, 100 μM, no thrombin
[9] = passage 12 cells, 1.0 μM + 0.1 U/ml thrombin
[10] = passage 12 cells, 1.0 μM, no thrombin
[11] = passage 8 cells, 10.0 μM + 0.1 U/ml thrombin
[12] = passage 8 cells, 10.0 μM, no thrombin
[13] = passage 12 cells, 10.0 μM + 0.1 U/ml thrombin
[14] = passage 12 cells, 10.0 μM, no thrombin

## C[C@@H]1NC(=O)[C@H](CC(=O)O)NC1=O [DA-DKP]
[1]; 100 μM DA-DKP with TNFα 1 ng/ml, not significant
  effect on TNFα-induced drop in ECIS: prevent some of the TNFα-induced drop in ECIS
[1]; 100 μM alone
  ECIS increase persisting after treatment: 35 h
  start of ECIS increase after treatment: about 5.0 hours
  time at which ECIS increase reached significance after treatment: 12 h
[1]; 100 μM alone, glomerular endothelial cells, monitored 90 hours
  ECIS (resistance) as compared to untreated cells: increase of ECIS
[2]; 100 μM
  ECIS (TER) increase, comparison of doses: greatest increase
[2]; doses 0.5 μM, 5.0 μM, 50 μM and 100
  ECIS (TER): dose-dependent increase in ECIS (TER)
[3]; 100 μM DA-DKP with S1P 1 μM
  effect on cortical rings of S1P: enhance the cortical rings; also recorded: strengthen the protective effects of S1P
[3]; 100 μM DA-DKP with TNFα 1 ng/ml
  effect on stress fibers caused by TNFα: decreased the stress fiber formation and/or the thickness of the fibers; also recorded: reversed the formation of stress fibers induced by TNFα
RhoA; [5]
  Mean OD (active RhoA): 0.377
  Percent Inhibition vs. Thrombin: 40.04%
RhoA; [6]
  Mean OD (active RhoA): 0.110
  Percent Inhibition vs. Untreated Control: −7.88%
RhoA; [7]
  Mean OD (active RhoA): 0.752
  Percent Inhibition vs. Thrombin: 46.82%
RhoA; [8]
  Mean OD (active RhoA): 0.389
  Percent Inhibition vs. Untreated Control: 14.52%

## C[C@@H]1C[C@H]2[C@@H]3CCC4=CC(=O)C=C[C@]4(C)[C@@]3(F)[C@@H](O)C[C@]2(C)[C@@]1(O)C(=O)CO [Dexamethasone]
RhoA; [9]
  Mean OD (active RhoA): 0.826
  Percent Inhibition vs. Thrombin: 33.48%
RhoA; [10]
  Mean OD (active RhoA): 0.428
  Percent Inhibition vs. Untreated Control: 5.83%

## CSCC[C@@H]1NC(=O)[C@H](CCCNC(=N)N)NC1=O [MR-DKP]
[4]; 50 μM
  ECIS increase at its maximum: around 20%
  brief elevation in resistance, time window: 2 to 5 h
  start of ECIS increase: about 15 hours
  time at which ECIS increase became significant: about 18 hours
  time at which resistance increased again: about 30 hours
  time at which resistance returned to the levels of the control: 28 to 29 h
  time of reaching significance again: about 33 hours
  ECIS as compared to untreated cells: increase in ECIS
[4]; 50 μM, after the second increase
  persistence of ECIS increase: persisted for the remainder of the experiment
[4]; 100 μM
  ECIS increase at its maximum: around 20%
  persistence of ECIS increase: persisted for the remainder of the experiment
  start of ECIS increase: about 15 hours
  time at which ECIS increase became significant: about 18 hours
  time of reaching significance again: about 33 hours
  ECIS as compared to untreated cells: increase in ECIS

## O=c1cc(N2CCOCC2)oc2c(-c3ccccc3)cccc12 [PI3 kinase inhibitor LY 294002]
RhoA; [11]
  Mean OD (active RhoA): 0.433
  Percent Inhibition vs. Thrombin: 27.86%
RhoA; [12]
  Mean OD (active RhoA): 0.056
  Percent Inhibition vs. Untreated Control: 45.32%
RhoA; [13]
  Mean OD (active RhoA): 0.685
  Percent Inhibition vs. Thrombin: 58.73%
RhoA; [14]
  Mean OD (active RhoA): 0.370
  Percent Inhibition vs. Untreated Control: 18.70%
